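Dose response: 5 concentrations. Exposure: 48 h. Format: 96-well plates. Endpoint: linear interpolation; highest concentration if not reached. Abbreviation: GI50, concentration required for 50% inhibition of growth. The concentration for full growth arrest is given as TGI.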
How the values were obtained:
Assay in all cases: growth of human tumour cells (NCI), 48 h
DLD-1 colon = test system: DLD-1 colon
HOP-18 NSCLC = test system: HOP-18 NSCLC
DMS 114 small cell lung = test system: DMS 114 small cell lung
KM20L2 colon = test system: KM20L2 colon
SNB-78 CNS = test system: SNB-78 CNS
RXF-631 renal = test system: RXF-631 renal
XF 498 CNS = test system: XF 498 CNS

Row | Compound | TGI (DLD-1 colon) [µM] | TGI (HOP-18 NSCLC) [µM] | TGI (DMS 114 small cell lung) [µM] | TGI (KM20L2 colon) [µM] | TGI (SNB-78 CNS) [µM] | TGI (RXF-631 renal) [µM] | TGI (XF 498 CNS) [µM] | GI50 (DLD-1 colon) [µM] | GI50 (DMS 114 small cell lung) [µM] | GI50 (KM20L2 colon) [µM] | GI50 (SNB-78 CNS) [µM] | GI50 (RXF-631 renal) [µM]
1 | CC1(C)OC(=O)C(=C2CC(c3ccccc3)c3ccccc32)C(=O)O1 (configuration not stated) | > 100 | > 100 | > 100 | > 100 | > 100 | > 100 |  |  |  |  |  | 
2 | CN(C)/C(N)=N/C(N)=S | > 100 | > 100 | > 100 | > 100 | > 100 | > 100 | > 100 |  |  |  |  | 
3 | COC(=O)NN1C(C)=C(C(=O)OC)C2(CCOC2=O)C1(C)O (configuration not stated) | > 100 | > 100 | > 100 | > 100 | > 100 | > 100 | > 100 |  |  |  |  | 
4 | COc1cc(-c2cc(CCC(=O)Nc3ccccc3[N+](=O)[O-])n(-c3ccc([N+](=O)[O-])cc3[N+](=O)[O-])n2)ccc1O | > 100 | > 10 | > 100 | > 100 | > 100 | > 100 | > 100 | > 100 | > 100 | > 100 | > 100 | > 100
5 | COc1ccc(/C(C)=N/NC(N)=S)c(OC)c1 | > 100 | > 100 | > 100 | > 100 | > 100 | > 100 | > 100 |  |  |  |  | 
6 | CC1=C(c2cc(C(=O)Nc3nccs3)nc(NC#N)n2)Sc2ccccc2N1 | > 100 | > 100 |  | > 100 |  | > 100 | > 100 |  |  |  |  | 
7 | CC(Oc1ccc2cc(C(=O)c3ccccc3)c(=O)oc2c1)C(=O)O (configuration not stated) |  | > 100 | > 100 | > 100 | > 100 | > 100 | > 100 |  |  |  |  | 
8 | CCC(/C(=N\Nc1c(Cl)cc(Cl)cc1Cl)c1ccccc1)n1ccnc1C (configuration not stated) | 17.2 | 30.1 | 22.3 | 17.5 | 42.2 | 25 |  |  |  |  |  | 
9 | CC(C)CC(=O)NS(=O)(=O)c1ccccc1 | > 100 | > 100 | > 100 | > 100 | > 100 | > 100 | > 100 |  |  |  |  | 
10 | CCC/C(=N\NC(=O)c1cc2ccccc2cc1O)C(CC)C(=O)CCC(=O)N(Cc1ccccc1)Cc1ccccc1 (configuration not stated) | > 100 | 91.1 | 59.7 | > 100 | > 100 | > 100 |  |  |  |  |  | 
11 | CCN(CC)CCOc1ccc(C(=C2CCCCC2)c2ccc(OCCN(CC)CC)cc2)cc1 | 4.52 | 8.01 |  | 2.55 |  | 2.82 | 2.29 |  |  |  |  | 
12 | CC(=O)NC(CCCCNC(=O)N(C)N=O)C(=O)NCc1ccccc1 (configuration not stated) | > 100 |  | > 100 | > 100 | > 100 | > 100 | > 100 |  |  |  |  | 
13 | CN(C)/C=N/c1nc2ncn(CCOC(=O)c3ccccc3)c2c(=O)[nH]1 | > 100 | > 100 | > 100 | > 100 | > 100 | > 100 |  |  |  |  |  | 
14 | CSc1ccc2c(cc1=O)[C@@H](NC(=O)c1ccc(F)cc1)CCc1cc(O)c(O)c(O)c1-2 | > 100 | > 100 | > 100 | > 100 | > 100 | > 100 |  |  |  |  |  | 
15 | CCOC(=O)/C=C/c1ccccn1 | > 100 | > 100 | > 100 |  | > 100 | > 100 | > 100 |  |  |  |  | 
16 | ClC[Si]12OCCN(CCO1)CCO2 | > 100 | > 100 | > 100 |  | > 100 | > 100 |  |  |  |  |  | 
17 | N#CC1=C(c2ccccc2)C(O)(c2ccccc2)NC1=O (configuration not stated) | > 100 | > 100 | > 100 | > 100 |  | > 100 | > 100 |  |  |  |  | 
18 | Oc1cc2c(cc1O)-c1[nH]ncc1CC2 | > 100 | 61.8 | 75.2 | > 100 | > 100 |  | 86.7 |  |  |  |  | 
19 | Cc1cc2c(cc1C)[n+](=O)c(C(=O)/C=C/c1ccccc1Cl)c(C)n2[O-] | 42.1 | > 100 | 53.4 | > 100 | > 100 | 84.9 | 42.1 |  |  |  |  | 
